These results are taken from paper PMC8297715 (ACS chemical biology, 2020).

For assay [1], the target named is T1, human AChE (Homo sapiens, UniProt P22303). Put plainly: Amplex Red acetylcholinesterase. In kind it is biochemical. The following applies: read-out: AChE inhibition IC50; dose-response; human AChE (Sigma).
Assay [2] concerns the target T2, human nSMase2 (Homo sapiens, UniProt Q9NY59).
T2 sequence (Q9NY59 1-655): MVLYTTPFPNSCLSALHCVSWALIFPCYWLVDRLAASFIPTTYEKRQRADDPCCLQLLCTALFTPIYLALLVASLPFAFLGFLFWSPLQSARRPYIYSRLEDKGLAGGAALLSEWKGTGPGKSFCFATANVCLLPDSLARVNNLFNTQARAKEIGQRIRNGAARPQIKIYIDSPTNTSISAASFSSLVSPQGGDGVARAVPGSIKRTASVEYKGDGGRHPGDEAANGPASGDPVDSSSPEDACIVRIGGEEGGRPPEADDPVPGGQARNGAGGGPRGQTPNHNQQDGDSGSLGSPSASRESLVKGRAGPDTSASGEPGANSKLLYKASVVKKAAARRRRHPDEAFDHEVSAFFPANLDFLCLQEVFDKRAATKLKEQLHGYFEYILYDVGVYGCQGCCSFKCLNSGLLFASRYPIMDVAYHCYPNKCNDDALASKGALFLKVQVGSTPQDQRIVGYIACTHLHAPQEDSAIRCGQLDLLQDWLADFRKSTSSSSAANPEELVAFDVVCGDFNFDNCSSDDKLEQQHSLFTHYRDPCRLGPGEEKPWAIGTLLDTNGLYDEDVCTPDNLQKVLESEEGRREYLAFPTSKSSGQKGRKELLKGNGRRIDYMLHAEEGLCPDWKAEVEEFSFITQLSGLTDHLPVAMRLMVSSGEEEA
The assay is described as follows: Amplex Red neutral sphingomyelinase enzyme activity assay. In kind it is biochemical.

Assay [3] deals with HEK293T Tau RD P301S FRET biosensor (tau biosensor). The assay is described as follows: EV-mediated transfer. In kind it is cell-based. The following applies: 20 μM.
Assay [4] concerns the target T1, human AChE. The settings on record: cited from earlier work.
Assay [5] relates to HEK293T Tau RD P301S FRET biosensor (tau biosensor). The following applies: previously published; cited from earlier work.

Structures are written as SMILES.

T1 sequence (P22303 32-614): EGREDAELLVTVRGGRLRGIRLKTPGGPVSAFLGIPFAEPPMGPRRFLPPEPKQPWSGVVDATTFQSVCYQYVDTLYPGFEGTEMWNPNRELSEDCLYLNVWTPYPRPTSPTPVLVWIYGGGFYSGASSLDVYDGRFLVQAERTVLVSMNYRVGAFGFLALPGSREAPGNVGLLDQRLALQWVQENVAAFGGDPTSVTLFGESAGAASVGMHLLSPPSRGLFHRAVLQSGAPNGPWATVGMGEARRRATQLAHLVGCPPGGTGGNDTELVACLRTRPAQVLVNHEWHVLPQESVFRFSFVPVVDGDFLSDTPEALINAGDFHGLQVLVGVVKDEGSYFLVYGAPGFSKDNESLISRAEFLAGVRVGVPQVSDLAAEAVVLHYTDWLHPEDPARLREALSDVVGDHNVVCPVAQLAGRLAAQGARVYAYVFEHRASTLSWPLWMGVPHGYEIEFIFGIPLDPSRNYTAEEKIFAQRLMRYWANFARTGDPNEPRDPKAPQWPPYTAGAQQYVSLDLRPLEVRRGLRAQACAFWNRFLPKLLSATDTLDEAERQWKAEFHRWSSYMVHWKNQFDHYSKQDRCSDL

By IC50 is commonly meant the concentration needed to halve the response being measured. On to `CN1c2ccc(OC(=O)Nc3ccccc3)cc2[C@]2(C)CCO[C@H]12` [compound 1, (−)-phensvenine], for which the IC50 in assay [1] was 0.5 µM.
As for `CCN(C)C(=O)Oc1cccc([C@H](C)N(C)C)c1` [rivastigmine], in assay [2], the “nSMase2 activity” value is on record as “no nSMase2 activity”. Moreover, in assay [3], the “EV-mediated tau seed transfer, EMT assay” value is reported as “partially suppress”.
Turning to `CN1CC[C@]2(C)c3cc(OC(=O)Nc4ccccc4)ccc3N(C)[C@H]12` [Posiphen], the “AChE inhibitor activity” value in assay [4] (reported) is reported as “weak AChE inhibitor”. In addition, the IC50 in assay [2] was > 50 µM.
As to `O=c1[nH]c(=S)[nH]c(-c2ccccc2)c1Cc1c(O)ccc2ccccc12` [cambinol], in assay [4] (previously published), the “AChE activity” value is “no AChE activity”. The “tau seed transfer in the EMT assay” value in assay [5] is listed as “shows inhibition of tau seed transfer”.
As for `CN1CC[C@@]2(C)c3cc(OC(=O)Nc4ccccc4)ccc3N(C)[C@@H]12` [phenserine], the IC50 in assay [2] was > 50 µM.
